Data: patent publication US11278555B2, “Combinational therapies for treatment of cancer comprising a bacteriochlorophyll derivative” (Yeda Research and Development Co. Ltd., priority 2016, dated 2022)

What was measured:
[1] = Spleen weight of animals orthotopically grafted with 4T1 cancer cells; assay type: in vivo, mice; conditions: 1 and 3 weeks
Source text: FIG. 13 compares changes in the spleen weight of animals orthotopically grafted with 4T1 cancer cells and not treated (control) with tumor bearing animals that underwent Gemzar treatment, WST11 VTP treatment or their combination.

MB49 (bladder) tumors [2] = test: Systemic anti-tumor response in MB49 mice: second tumor (bilateral model) and tail vein re-challenge (Scheme 3); assay type: in vivo; conditions: for animals with growth of second tumor grafted at left hind leg 1 day post VTP (fraction): bilateral model, Gemzar 50 mg/kg
Description: • (i) Bacteriochlorophyll Derivatives—The Bchl derivatives and RGD-conjugates thereof were provided by Steba Biotech (Rehovot, Israel). […] Concentration was verified by spectrophotometric measurement. STL-7012 was provided as dipotassium salt. Working solution was prepared by dissolving STL-7012 K^+ salt in 5% mannitol solution (1 mg/ml). […] WST11 was supplied as a powder and kept in the dark at −20° C. Stock was prepared by dissolving WST11 in DDW containing 5% glucose and 0.67% mannitol, aliquoted and lyophilized. Working solution was reconstituted with DDW and the concentration of solution was confirmed spectrophotometrically. Alternatively, Clinical WST11 (batch: P00611, and 10-130611) was supplied as lyophilized formulation. Material was dissolved in 5% dextrose, aliquoted and stored at −20° C. At the day of treatment the aliquot was thawed, filtered and the concentration of solution was confirmed spectrophotometrically. • (ii) Chemotherapeutic drugs preparation and storage—Gemcitabine (GEM, Gemzar®, Lilly) was purchased from a local pharmacy as a powder, dissolved in saline to a concentration of 38 mg/ml, aliquoted and stored at −20° C. […] Cyclophosphamide (CTX, Endoxan®, Baxter Oncology Gmbh, Germany) was purchased from a local pharmacy. A stock solution of 20 mg/ml was prepared by dissolving in 0.9% NaCl, aliquoted and stored at −20° C. […] Whole body imaging of luciferase-transfected tumors and metastases were recorded five minutes following 75 mg Kg^−1 intraperitoneal (i.p.) injection of D-luciferin with respective filter sets. • (vi) PDT treatment protocol: 4T1-Luc cells were grafted in the mammary pad of Balb/c mice. […] Ablation of primary tumors was assessed every 7 days by imaging the tumor's luciferase-mediated bioluminescence signal, using IVIS. […]

MB49 (bladder) tumors [3] = test: WST11 VTP and Gemzar in mice grafted with MB49 tumors (Scheme 2); assay type: in vivo; conditions: for animals cured (fraction): WST11 9 mg/kg VTP day 15 post grafting, Gemzar 50 mg/kg, 12 treatments/90 days; for cure / tumor progression: single treatment modalities
Description: • (i) Bacteriochlorophyll Derivatives—The Bchl derivatives and RGD-conjugates thereof were provided by Steba Biotech (Rehovot, Israel). […] Concentration was verified by spectrophotometric measurement. STL-7012 was provided as dipotassium salt. Working solution was prepared by dissolving STL-7012 K^+ salt in 5% mannitol solution (1 mg/ml). […] WST11 was supplied as a powder and kept in the dark at −20° C. Stock was prepared by dissolving WST11 in DDW containing 5% glucose and 0.67% mannitol, aliquoted and lyophilized. Working solution was reconstituted with DDW and the concentration of solution was confirmed spectrophotometrically. Alternatively, Clinical WST11 (batch: P00611, and 10-130611) was supplied as lyophilized formulation. Material was dissolved in 5% dextrose, aliquoted and stored at −20° C. At the day of treatment the aliquot was thawed, filtered and the concentration of solution was confirmed spectrophotometrically. • (ii) Chemotherapeutic drugs preparation and storage—Gemcitabine (GEM, Gemzar®, Lilly) was purchased from a local pharmacy as a powder, dissolved in saline to a concentration of 38 mg/ml, aliquoted and stored at −20° C. […] Cyclophosphamide (CTX, Endoxan®, Baxter Oncology Gmbh, Germany) was purchased from a local pharmacy. A stock solution of 20 mg/ml was prepared by dissolving in 0.9% NaCl, aliquoted and stored at −20° C. Aliquots were thawed, diluted with saline if needed to a desired concentration and used on the same day prepared at indicated doses. • (iii) Murine cell lines—Mammary luciferase (luc)-labeled 4T1 cell line (4T1-Luc) was a kind gift from Dr. Zvi Granot (Faculty of Medicine, The Hebrew University of Jerusalem, Israel); melanoma B16-F10 cell line was obtained from the American Type Culture Collection (ATCC, Manassas, Va.); bladder MB49 cell line was a kind gift from James Allison (MSKCC, New York, USA), and luc-labeled MB49-cell line was established using the murine stem cell virus (MSCV)-puromycin-luc-GFP construct (kindly provided by Dr. Emily Cheng, Human Oncology and Pathogenesis Program, MSKCC). 4T1 and MB49 cells were maintained in DMEM medium and B16-F10 cells in RPMI medium supplemented with 1 mmol/L sodium pyruvate, 10% fetal calf serum (FCS), 250 μg/ml hygromycin, 0.06 mg/ml penicillin and 0.1 mg/ml streptomycin. The cells were grown as monolayer at 37° C. in a humidified atmosphere (5% CO2, 95% air). • (iv) Murine tumor models—Female, Balb/c mice (6-8 week old) were grafted either subcutaneously (s.c.) into the right hind leg or orthotopically with 1×10^6 4T1 cells suspended in 50 or 1000 PBS. For the rechallenge study, 2×10^5 4T1 cells were orthotopically grafted. For bladder cancer model, 5×10^4 of MB49 or MB49-luciferase cell line were s.c. injected into the right flank of C57B/6 male mice (7-8 weeks old, Taconic, Hudson, N.Y.) 15 days prior to VTP treatment. For the efficacy study of VTP in immune compromised mice, the same number of MB49 cells was injected in the flank of Rag^−/− on C57B/6 background or C57B/6 male mice (7-8 week old, Jackson Laboratory, Bar Harbor, Me.). For bilateral model of MB49 cells, animals received 5×10^4 MB49 cells in the right flank and 5×10^4 cells in the left flank on days −15 and +1, respectively. All experimental procedures were approved by the Institutional Animal Care and Use Committee at the Weizmann Institute of Science (Rehovot, Israel) and The Memorial Sloan Kettering Cancer Center (MSKCC, New York, USA). […] Whole body imaging of luciferase-transfected tumors and metastases were recorded five minutes following 75 mg Kg^−1 intraperitoneal (i.p.) injection of D-luciferin with respective filter sets. • (vi) PDT treatment protocol: 4T1-Luc cells were grafted in the mammary pad of Balb/c mice. […] During the first two post-treatment days, the mice received analgesia (2.5 mg/kg Flunexin, once daily). Ablation of primary tumors was assessed every 7 days by imaging the tumor's luciferase-mediated bioluminescence signal, using IVIS. […]

[4] = tested on: CD11b+ cells, neutrophils/G-MDSC and monocytes/M-MDSC; test: Innate immune response (spleen CD11b+ IHC, FACS of MDSC) of mice bearing MB49 tumors; assay type: in vivo; conditions: for CD11b+ cells in the spleen (IHC): day 6 post VTP; for neutrophils/G-MDSC and monocytes/M-MDSC in splenocytic cells (FACS): day 9 post treatment, Gemzar 60 or 120 mg/kg
Description: • (i) Bacteriochlorophyll Derivatives—The Bchl derivatives and RGD-conjugates thereof were provided by Steba Biotech (Rehovot, Israel). […] Concentration was verified by spectrophotometric measurement. STL-7012 was provided as dipotassium salt. Working solution was prepared by dissolving STL-7012 K^+ salt in 5% mannitol solution (1 mg/ml). […] WST11 was supplied as a powder and kept in the dark at −20° C. Stock was prepared by dissolving WST11 in DDW containing 5% glucose and 0.67% mannitol, aliquoted and lyophilized. Working solution was reconstituted with DDW and the concentration of solution was confirmed spectrophotometrically. Alternatively, Clinical WST11 (batch: P00611, and 10-130611) was supplied as lyophilized formulation. Material was dissolved in 5% dextrose, aliquoted and stored at −20° C. At the day of treatment the aliquot was thawed, filtered and the concentration of solution was confirmed spectrophotometrically. • (ii) Chemotherapeutic drugs preparation and storage—Gemcitabine (GEM, Gemzar®, Lilly) was purchased from a local pharmacy as a powder, dissolved in saline to a concentration of 38 mg/ml, aliquoted and stored at −20° C. […] Cyclophosphamide (CTX, Endoxan®, Baxter Oncology Gmbh, Germany) was purchased from a local pharmacy. A stock solution of 20 mg/ml was prepared by dissolving in 0.9% NaCl, aliquoted and stored at −20° C. Aliquots were thawed, diluted with saline if needed to a desired concentration and used on the same day prepared at indicated doses. • (iii) Murine cell lines—Mammary luciferase (luc)-labeled 4T1 cell line (4T1-Luc) was a kind gift from Dr. Zvi Granot (Faculty of Medicine, The Hebrew University of Jerusalem, Israel); melanoma B16-F10 cell line was obtained from the American Type Culture Collection (ATCC, Manassas, Va.); bladder MB49 cell line was a kind gift from James Allison (MSKCC, New York, USA), and luc-labeled MB49-cell line was established using the murine stem cell virus (MSCV)-puromycin-luc-GFP construct (kindly provided by Dr. Emily Cheng, Human Oncology and Pathogenesis Program, MSKCC). 4T1 and MB49 cells were maintained in DMEM medium and B16-F10 cells in RPMI medium supplemented with 1 mmol/L sodium pyruvate, 10% fetal calf serum (FCS), 250 μg/ml hygromycin, 0.06 mg/ml penicillin and 0.1 mg/ml streptomycin. […] Whole body imaging of luciferase-transfected tumors and metastases were recorded five minutes following 75 mg Kg^−1 intraperitoneal (i.p.) injection of D-luciferin with respective filter sets. • (vi) PDT treatment protocol: 4T1-Luc cells were grafted in the mammary pad of Balb/c mice. […] Ablation of primary tumors was assessed every 7 days by imaging the tumor's luciferase-mediated bioluminescence signal, using IVIS. […]

| SMILES | six fold increase in spleen weight found in non-treated animals [1] | animals with growth of second tumor grafted at left hind leg 1 day post VTP (fraction) (MB49 (bladder) tumors [2]) | animals cured (fraction) (MB49 (bladder) tumors [3]) | cure (MB49 (bladder) tumors [3]) | tumor progression (MB49 (bladder) tumors [3]) | CD11b+ cells in the spleen (IHC) [4] | neutrophils/G-MDSC and monocytes/M-MDSC in splenocytic cells (FACS) [4] | surviving mice that rejected the tumor cells (MB49 (bladder) tumors [2]; re-challenge by tail vein injection of MB49 cells at day 125 post VTP) |
| --- | --- | --- | --- | --- | --- | --- | --- | --- |
| Nc1ccn([C@@H]2O[C@H](CO)[C@@H](O)C2(F)F)c(=O)n1 [Gemzar, Gemcitabine] | almost completely avoided | 15/20 | 0/19 | 0% | slightly delayed tumor progression | depletes CD11b+ cells | depleted systemically | – |
| CCC1c2cc3[n-]c(c(CC(=O)OC)c4nc(cc5[n-]c(cc(n2)C1C)c(C(C)=O)c5C)C(C)C4CCC(=O)[O-])c(C(=O)NCCS(=O)(=O)[O-])c3C.[K+].[K+].[Pd+2] (stereo not drawn) [WST11, Palladium 3^1-oxo-15-methoxycarbonylmethyl-rhodobacteriochlorin 13^1-(2-sulfoethyl) amide dipotassium salt] | completely prevented | 12/19 | 3/19 | 16% | slightly delayed tumor progression | depletes CD11b+ cells | depleted systemically | 70% |
